Earlier results on one compound are cited in patent US7267830B2, “Composition and methods for inhibiting the progression macular degeneration and promoting healthy vision” (Alcon, Inc., priority 2003, dated 2007).

Read-outs that look alike come from different tables or passages of the source.

Data set [1] relates to macular degeneration changes. To be noted: zinc supplement, Newsome 1988.

Regarding `[Zn]` [Zinc], in data set [1], the “retarding macular degeneration changes versus placebo” value is given as “significantly better than placebo”. Besides, the tolerability entry reads like this: (100 mg zinc a day (Wagner 1985)) “well tolerated without difficulty”; (150 mg of zinc a day (Wagner 1985)) “well tolerated without difficulty”; (about 200 mg of zinc per day) “well-tolerated”. Besides, the potential side effects result (about 200 mg of zinc per day (Fischer 1983)) is “blocking copper absorption”.
